{"source": "patent US12012574B2", "about": "“Process for removing dry surface biofilm” (Whiteley Corporation Pty. Ltd., priority 2013, dated 2024)", "key": {"[1]": {"system": "12 day dry surface biofilm (Staphylococcus aureus ATCC 25923)", "test": "Initial screening using TOC to assess removal of dry surface biofilm", "assay_type": "cell-based", "settings": "for TOC Coupons with Biofilm: biofilm coated Pyrex coupons after cleaning, Table 14 dilution; for TOC due to biofilm: biofilm coupon TOC minus blank coupon TOC; for TOC Blank coupons: fresh clean coupons exposed to test product at Table 14 dilution; for % Reduction (TOC): relative to negative control (Milli-Q water)"}, "[2]": {"system": "dry surface biofilm of S. aureus", "test": "Kill of organisms within dry surface biofilm (Example 18)", "assay_type": "cell-based, Staphylococcus aureus"}, "[3]": {"system": "12 day dry surface biofilm", "test": "Protein removal from dry surface biofilm coated coupons (BCA assay)", "assay_type": "cell-based, Staphylococcus aureus", "protocol": "12 day biofilm was grown on PET coupons following the methodology of Example 8. The rods containing the biofilm coated coupons were then removed and any loosely bound biofilm washed off with Milli-Q water as described in Example 8.\nOne rod holding three dry surface biofilm coated coupons was then placed into 30 ml of a solution of Example 9 (17 g/litre) for 10 minutes. A second rod was placed into 30 ml of a solution of Matrix (1:50 dilution), and a third rod placed into 30 ml Milli-Q water to serve as a positive control. An additional rod, holding 3 uncoated coupons was sterilized and used as a negative control.\nAfter 10 minutes, each rod was placed into 30 ml of 1M sodium hydroxide solution to elute off all remaining protein. Aliquots from each solution were then taken and tested for protein using a Bicinchroninic Acid (BCA) assay, using a micro BCA test kit (Sigma Aldrich).\nIn order to perform the BCA assay, a series of standard solutions of bovine serum albumin were prepared to produce a standard curve. […] The samples were then incubated for 60 minutes at 60° C., and the absorbance at 562 nm read using a spectrophotometer (see Table 17). […]"}, "[4]": {"system": "12 day dry surface biofilm", "test": "Bacterial reduction from 12 day dry surface biofilm, clean and dirty conditions (Examples 15, 16)", "assay_type": "cell-based, Staphylococcus aureus", "settings": "for Log reduction: 5 minute contact time", "protocol": "The bacterial reductions obtained from a 12 day dry surface biofilm were assessed under clean conditions using Example 9, Chlorclean tablets and a generic SDIC tablet\nEach test product was dissolved in water.\nCoupons coated in 12-day dry surface biofilm were produced as per Example 8. 2 ml of each test solution, followed by 2 ml of water were added to the wells in a tissue culture plate.\nAfter a 5 minute contact time, coupons were removed from the disinfectant solutions, rinsed twice using 30 ml phosphate buffered saline for 5 seconds, and then placed into 5 ml tubes containing 2 ml of a neutralizer solution comprising 6% Tween 80 plus 1% sodium thiosulfate plus 5% bovine serum plus 10% Bovine Serum Albumin.\nThe tubes were sonicated for 20 minutes and then vortexed for 2 minutes. Serial 10-fold dilutions were then made and 100 ul of neat, 10^−1, 10^−2, 10^−3 and 10^−4 dilutions were plated on Horse Blood Agar plates. The plates were incubated at 37° C. overnight and then enumerated.\nControl coupons, not exposed to disinfectant were similarly worked up to allow the log reductions to be calculated\nThe bacterial reductions obtained from a 12 day dry surface biofilm were assessed under dirty conditions using Example 9, Chlorclean tablets and a generic SDIC tablet. Each test product was dissolved in artificial hard water containing 340 ppm CaCO3 to which was added 5% Bovine Calf Serum.\nCoupons coated in 12-day dry surface biofilm were produced as per Example 8. 2 ml of each test solution, followed by 2 ml of hard water to which was added 5% bovine calf serum were added to the wells in a tissue culture plate.\nControl coupons, not exposed to disinfectant were similarly worked up to allow the log reductions to be calculated."}, "planktonic S. aureus": {"system": "planktonic S. aureus", "test": "Disinfectant efficacy against planktonic bacteria (Example 17)", "assay_type": "cell-based, Staphylococcus aureus", "settings": "dirty conditions (5% bovine calf serum), 5 minutes contact time"}, "[5]": {"system": "Staphylococcus aureus dry surface biofilm", "settings": "solution containing 20,000 ppm available chlorine; cited from earlier work"}, "[6]": {"settings": "absence of biological soil, five minutes contact time"}, "[7]": {"settings": "dirty conditions (presence of an organic soil), 5 minutes contact time"}}}
{"smiles": "[Na+].[OH-]", "note": "[1M NaOH, sodium hydroxide]", "values": [{"measurement": "TOC Coupons with Biofilm", "setting": "[1]", "value": 0.16, "unit": "µg"}, {"measurement": "TOC due to biofilm", "setting": "[1]", "value": -0.01, "unit": "µg"}, {"measurement": "TOC Blank coupons", "setting": "[1]", "value": 0.17, "unit": "µg"}, {"measurement": "% Reduction (TOC)", "setting": "[1]", "value": 100, "unit": "%"}]}
{"smiles": "O=c1nc([O-])n(Cl)c(=O)n1Cl.[Na+]", "note": "[SDIC, sodium diisocyanurate]", "values": [{"measurement": "log10 reduction of biofilm viability", "setting": "[2]; [6]", "value": 2.85, "unit": "log10"}, {"measurement": "log10 reduction of biofilm viability", "setting": "[2]; absence of biological soil, five minutes contact time, listed as SIDC", "value": 3, "unit": "log10"}, {"measurement": "log10 reduction of biofilm viability", "setting": "[2]; [7]", "value": 0.03, "unit": "log10"}, {"measurement": "Percentage reduction", "setting": "[3]; Example 14: protein, shorter contact time (not given)", "value": 17.65}, {"measurement": "Neutraliser control", "setting": "[4]; clean conditions", "value": 0.045}, {"measurement": "Log reduction", "setting": "[4]; clean conditions", "value": 6.55, "unit": "log"}, {"measurement": "Neutraliser control", "setting": "[4]; dirty conditions", "value": 0.018}, {"measurement": "Log reduction", "setting": "[4]; dirty conditions: hard water 340 ppm CaCO3 with 5% Bovine Calf Serum", "value": 0.007, "unit": "log"}]}
{"smiles": "OO", "note": "[hydrogen peroxide]", "values": [{"measurement": "log10 reduction of biofilm viability", "setting": "[2]; [6]", "value": "zero and no effect"}, {"measurement": "log10 reduction of biofilm viability", "setting": "[2]; [7]", "value": "zero"}, {"measurement": "log10 reduction / activity", "setting": "planktonic S. aureus", "value": "completely deactivated"}]}
{"smiles": "OCl", "note": "[sodium hypochlorite, Sodium hypochlorite]", "values": [{"measurement": "survival after exposure", "setting": "[5]", "value": "still showing survivors"}, {"measurement": "TOC Coupons with Biofilm", "setting": "[1]", "value": 1.87, "unit": "µg"}, {"measurement": "TOC due to biofilm", "setting": "[1]", "value": 1.53, "unit": "µg"}, {"measurement": "TOC Blank coupons", "setting": "[1]", "value": 0.34, "unit": "µg"}, {"measurement": "% Reduction (TOC)", "setting": "[1]", "value": 79, "unit": "%"}, {"measurement": "Percentage protein reduction", "setting": "[3]; Example 13: 10 minute contact time, calculated from positive control (Milli-Q water)", "value": 11.50}]}
